The nature of assay [1]: Inhibition of alternative complement pathway activation by complement modulation test.
Assay [2] in a line: Inhibition of classical complement pathway activation by complement modulation test.
The nature of assay [3]: Inhibition of classical complement pathway activation at 4 uM assessed as complement modulation test.
Assay [4] in a line: Inhibition of classical complement pathway activation at 4 uM in presence of beta glucosidase by complement modulation test.
The nature of assay [5]: Inhibition of classical complement pathway activation at 6.6 uM assessed as complement modulation test.

SMILES strings stand for the structures. pIC50: −log10 of the molar value. Active and inactive are the calls of the source. No cut-off for these calls is given here. A value given as a limit tells only on which side of the number the result lay.

Take `COC(=O)C1=CO[C@H](O[C@@H]2O[C@H](CO)[C@@H](O)[C@H](O)[C@H]2O)[C@H]2[C@@H]1[C@@H]1O[C@@H]1[C@@]21C=C(C(O)c2ccc(O)c(OC)c2)C(=O)O1` (stereo partly specified): the outcome in assay [1] was inactive. The term pIC50 denotes the IC50 on a negative log10 scale, so that one unit is a factor of ten. Read a low pIC50 as a high IC50. In the case of `COC(=O)C1=CO[C@@H](O[C@@H]2O[C@H](CO)[C@@H](O)[C@H](O)[C@H]2O)[C@H]2[C@@H]1C=C[C@@]21C=C(C(=O)c2ccc(O)c(OC)c2)C(=O)O1` [DEHYDROMETHOXYGAERTNEROSIDE], the negative logarithm of the IC50 (pIC50) in assay [2] was < 3.40. Moreover, the result in assay [1] was inactive. As for `COC(=O)C1=CO[C@H](O[C@@H]2O[C@H](CO)[C@@H](O)[C@H](O)[C@H]2O)[C@H]2[C@@H]1C=C[C@@]21C=C(C(O)c2ccc(O)cc2)C(=O)O1` (stereo partly specified) [GAERTNEROSIDE], the pIC50 in assay [2] is 4.24. The outcome in assay [1] was inactive.

With `COC(=O)C1=CO[C@H](O[C@@H]2O[C@H](CO)[C@@H](O)[C@H](O)[C@H]2O)[C@H]2[C@@H]1C=C[C@@]21C=C(C(=O)c2ccc(O)cc2)C(=O)O1` [DEHYDROGAERTNEROSIDE], the negative-log IC50 (pIC50) in assay [2] was < 3.40. For the same compound, the outcome in assay [1] was inactive. Taken in the same sequence, the figures for `O=C(O)C1=CO[C@H](O[C@@H]2O[C@H](CO)[C@@H](O)[C@H](O)[C@H]2O)[C@H]2[C@@H]1C=C[C@@]21C=C(C(O)c2ccc(O)cc2)C(=O)O1` (stereo partly specified) [GAERTNERIC ACID] were 4.16 and “inactive”. The like results for `COC(=O)C1=CO[C@H](O[C@@H]2O[C@H](CO)[C@@H](O)[C@H](O)[C@H]2O)[C@H]2[C@@H]1C=C[C@@]21C=C(C(O)c2ccc(O)c(OC)c2)C(=O)O1` (stereo partly specified) [METHOXYGAERTNEROSIDE] were, in that order, < 3.00 and “inactive”.

In general, inhibition refers to the drop in the measured response relative to a control, in per cent. As to `OCC1=C[C@@H](O)[C@@H]2C=CO[C@@H](O[C@@H]3O[C@H](CO)[C@@H](O)[C@H](O)[C@H]3O)[C@H]12`, the inhibition in assay [3] amounted to 21.7%; in assay [4] it was 89.3%. In turn, `COC(=O)C1=CO[C@H](O[C@@H]2O[C@H](COC(C)=O)[C@@H](O)[C@H](O)[C@H]2O)[C@H]2[C@@H]1C=C[C@@]21C=C(C(O)c2ccc(O)cc2)C(=O)O1` (stereo partly specified) [ACETYLGAERTNEROSIDE] gave a pIC50 in assay [2] of 4.15. The outcome in assay [1] was inactive. Regarding `COC(=O)C1=CO[C@@H](O)[C@@H]2C(CO)=CC[C@H]12`, the inhibition in assay [5] is 75.3%. Consider `COC(=O)C1=CO[C@@H](O[C@@H]2O[C@H](CO)[C@@H](O)[C@H](O)[C@H]2O)[C@@H]2C(CO)=CC[C@H]12`, for which, in assay [3], the inhibition was found to be 23%. On to `O=C(O)C1=CO[C@@H](O[C@@H]2O[C@H](CO)[C@@H](O)[C@H](O)[C@H]2O)[C@@H]2C(CO)=CC[C@H]12`, for which the inhibition in assay [3] is 14.3%; in assay [4], 87.3%. As for `COC(=O)C1=CO[C@H](O[C@@H]2O[C@H](CO)[C@@H](O)[C@H](O)[C@H]2O)[C@H]2[C@@H]1[C@@H]1O[C@@H]1[C@@]21C=C(C(O)c2ccc(O)cc2)C(=O)O1` (stereo partly specified) [EPOXYGAERTNEROSIDE], in assay [2], the pIC50 was < 3.00. Also, in assay [1], the outcome was inactive.

For the origin of these results see ChEMBL document CHEMBL1158890, “Complement-inhibiting iridoids from Morinda morindoides” (J Nat Prod, 2003).
